The test system of data set [1] is Mus musculus. Nature of the data set: Anticonvulsant activity in ip dosed mouse assessed as MES-induced seizures. It counts as functional.
Data set [2] deals with Mus musculus. Nature of the data set: Anticonvulsant activity in ip dosed mouse assessed as protection against PTZ-induced seizure. It counts as functional.
A short description of data set [3]: Protection index, ratio of TD50 for neurotoxicity in ip dosed mouse to ED50 for anticonvulsant activity in ip dosed mouse. It counts as toxicity, organism-based. The settings on record: in vivo, read-out: Ratio TD50/ED50.
In data set [4] the test system is Middle East respiratory syndrome-related coronavirus. Nature of the data set: Antiviral activity of Middle East respiratory syndrome coronavirus. Type of data set: functional, organism-based.
The test system of data set [5] is Rattus norvegicus. Nature of the data set: Antiinflammatory activity in rat assessed as reduction in xylene induced edema relative to control. It counts as functional. Also noted: scale not given: the % may be the effect or the level left.
Data set [6] has as its system MCF7. Nature of the data set: Antiproliferative activity against human MCF7 cells assessed as cell viability incubated for 48 hrs by MTT assay. Type of data set: functional, cell-based. The following applies: MCF7, 48 h.
Data set [7] has as its system Mycobacterium tuberculosis. Nature of the data set: Antimycobacterial activity against Mycobacterium tuberculosis H37Rv by test tube dilution technique. Type of data set: functional.
A short description of data set [8]: Inhibition of Plasmodium falciparum dihydrofolate reductase.
For data set [9], the system named is Mus musculus. Nature of the data set: Anticonvulsant activity in po dosed mouse assessed as MES-induced seizures. Type of data set: functional.
Data set [10] is described as follows: Protection index, ratio of TD50 for neurotoxicity in po dosed mouse to ED50 for anticonvulsant activity in ip dosed mouse. It counts as toxicity, organism-based. The following applies: in vivo, read-out: Ratio TD50/ED50.
Data set [11] deals with HeLa. Nature of the data set: Antiproliferative activity against human HeLa cells assessed as cell growth inhibition by MTT assay. It counts as functional, cell-based.
The nature of data set [12]: Anticancer activity against human SK-MEL-128 cells assessed as cell growth inhibition incubated for 48 hrs by MTT assay. It counts as functional, cell-based. The settings on record: SK-MEL-128, 48 h. In general terms: Tetrazolium assays rely on reduction of a dye to a coloured formazan, in cell work by metabolically active cells.
Data set [13] concerns BT-20. Nature of the data set: Potency index, ratio of test compound IC50 to cisplatin IC50 for antiproliferative against human BT-20 cells. It counts as functional.
Data set [14] deals with A549. Nature of the data set: Anticancer activity against human A549 cells assessed as cell growth inhibition incubated for 48 hrs by MTT assay. Type of data set: functional, cell-based. The settings on record: A549, 48 h.
In data set [15] the test system is BT-20. Nature of the data set: Anticancer activity against human BT-20 cells assessed as cell growth inhibition incubated for 48 hrs by MTT assay. The settings on record: BT-20, 48 h. It counts as functional, cell-based.
The subject of data set [16] is DU-145. Nature of the data set: Anticancer activity against human DU-145 cells assessed as cell growth inhibition incubated for 48 hrs by MTT assay. The settings on record: DU-145, 48 h. Type of data set: functional, cell-based.
Data set [17] has as its system Rattus norvegicus. Nature of the data set: Antiinflammatory activity in rat assessed as reduction in xylene induced edema at 10 mg/kg, po by CPE test relative to control. Also noted: scale not given: the % may be the effect or the level left. Type of data set: functional.
Data set [18] deals with HCT-116. Nature of the data set: Anticancer activity against human HCT-116 cells assessed as cell growth inhibition.
Data set [19] deals with HCT-116. Nature of the data set: Antiproliferative activity against human HCT-116 cells assessed as cell viability incubated for 48 hrs by MTT assay. The settings on record: HCT-116, 48 h.
The subject of data set [20] is HepG2. Nature of the data set: Antiproliferative activity against human HepG2 cells assessed as cell viability incubated for 72 hrs by MTT assay. It counts as functional, cell-based. The following applies: HepG2, 72 h.
Data set [21] concerns MCF7. Nature of the data set: Anticancer activity against human MCF7 cells assessed a cell growth inhibition incubated for 48 hrs by SRB assay. Type of data set: functional, cell-based. The following applies: MCF7, 48 h. On the technique in general: Sulforhodamine B stains cellular protein and so reports cell mass.
Data set [22] deals with Vascular endothelial growth factor receptor 2 (Homo sapiens, UniProt P35968). Nature of the data set: Inhibition of human VEGFR2 using biotinylated poly-GluTyr as substrate at 117 ng/ml incubated for 24 hrs in presence of ATP by ELISA assay relative to control. (In an ELISA, binding on a coated surface is turned into a signal by an enzyme label.)
Sequence of Vascular endothelial growth factor receptor 2 (P35968 whole entry): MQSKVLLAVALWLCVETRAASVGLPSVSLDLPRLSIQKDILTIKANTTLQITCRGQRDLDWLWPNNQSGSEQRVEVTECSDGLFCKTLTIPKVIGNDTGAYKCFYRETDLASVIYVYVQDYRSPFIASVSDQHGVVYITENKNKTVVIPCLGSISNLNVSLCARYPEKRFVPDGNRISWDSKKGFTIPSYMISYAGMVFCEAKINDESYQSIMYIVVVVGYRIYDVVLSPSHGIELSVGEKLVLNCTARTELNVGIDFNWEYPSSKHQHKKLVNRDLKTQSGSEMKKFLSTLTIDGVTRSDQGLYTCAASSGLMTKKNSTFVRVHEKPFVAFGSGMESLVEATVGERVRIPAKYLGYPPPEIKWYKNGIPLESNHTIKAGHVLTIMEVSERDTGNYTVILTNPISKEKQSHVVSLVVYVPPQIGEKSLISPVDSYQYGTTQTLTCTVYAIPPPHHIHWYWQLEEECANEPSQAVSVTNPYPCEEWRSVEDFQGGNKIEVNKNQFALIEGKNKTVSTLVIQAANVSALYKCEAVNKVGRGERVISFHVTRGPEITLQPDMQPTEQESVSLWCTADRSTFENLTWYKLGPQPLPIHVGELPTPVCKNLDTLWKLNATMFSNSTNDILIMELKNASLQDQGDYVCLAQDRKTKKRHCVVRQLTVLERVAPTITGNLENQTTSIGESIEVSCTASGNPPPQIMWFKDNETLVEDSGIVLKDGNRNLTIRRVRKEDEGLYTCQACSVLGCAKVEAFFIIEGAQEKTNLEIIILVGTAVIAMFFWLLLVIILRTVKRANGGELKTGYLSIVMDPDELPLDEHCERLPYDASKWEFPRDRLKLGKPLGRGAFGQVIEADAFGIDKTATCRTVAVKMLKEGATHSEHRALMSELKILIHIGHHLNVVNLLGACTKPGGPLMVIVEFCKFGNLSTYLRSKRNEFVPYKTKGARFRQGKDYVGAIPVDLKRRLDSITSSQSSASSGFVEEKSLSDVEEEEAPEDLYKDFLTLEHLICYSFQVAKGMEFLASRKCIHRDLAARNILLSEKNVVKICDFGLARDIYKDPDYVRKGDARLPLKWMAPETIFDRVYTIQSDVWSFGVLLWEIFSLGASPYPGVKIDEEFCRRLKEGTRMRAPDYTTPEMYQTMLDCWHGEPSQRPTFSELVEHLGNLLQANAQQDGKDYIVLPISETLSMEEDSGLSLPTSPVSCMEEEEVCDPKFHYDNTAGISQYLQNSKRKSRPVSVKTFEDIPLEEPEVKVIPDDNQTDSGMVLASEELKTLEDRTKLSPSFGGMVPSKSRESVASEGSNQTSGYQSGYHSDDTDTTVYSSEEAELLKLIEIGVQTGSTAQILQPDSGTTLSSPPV
The subject of data set [23] is PC-3. Nature of the data set: Anticancer activity against human PC-3 cells assessed as cell growth inhibition. Type of data set: functional, cell-based.
Data set [24] relates to Cytomegalovirus. Nature of the data set: Potency index, ratio of test compound IC50 to ganciclovir IC50 for antiviral activity against Cytomegalovirus. Type of data set: functional.
The test system of data set [25] is Cytomegalovirus. Nature of the data set: Antiviral activity against Cytomegalovirus infected in HFF cells […]. Type of data set: functional, organism-based. The following applies: Human betaherpesvirus 5, HFF.
Data set [26] relates to Mus musculus. Nature of the data set: Anticonvulsant activity in ip dosed mouse assessed as neurotoxicity measured after 15 mins. It counts as functional. The following applies: 0.25 h.

Values after ≈ are worked out from the molar mass of the structure shown. Some results are limits rather than exact numbers.

Consider 20 compounds from ChEMBL document CHEMBL5244255, “An insight on medicinal attributes of 1,2,4-triazoles” (Eur J Med Chem, 2020).

A word on the ED50: it is the dose that gives a 50% effect, or the effect in half of the subjects. Consider `Fc1ccc(-c2csc3nncn23)cc1`, for which the ED50 in [1] and in data set [2] was 49.1 mg/kg throughout. The selectivity ratio in data set [3] was 1.7.

For orientation: IC50 means the point on the concentration scale where inhibition reaches its midpoint. The compound `Sc1nnc(NNc2ccc(Cl)cc2)n1NC1C=CCC1` (stereo unspecified) yielded a concentration for half-maximal inhibition (IC50) in data set [4] of 0.51 µM.

Take `O=c1c2sccc2n2cnnc2n1-c1ccc(Cl)cc1`: in [5], the Activity was 50.48%.

With `O=C(O)c1ccc(-n2nc(Oc3ccccc3)nc2NC(=S)NC(=O)c2ccccc2)cc1`, the IC50 in [6] turned out to be 23.9 µM.

For orientation: MIC means the least concentration at which growth counts as inhibited. Turning to `Fc1ccc(-c2nn3c(COc4cnccn4)nnc3s2)cc1`, in [7], the MIC was 1 µg/mL (≈ 3.05 µM).

Regarding `CC1=C(C(=O)Nc2ccc(Br)cn2)C(c2cn(-c3ccccc3)nc2-c2ccc(Cl)cc2)n2ncnc2N1` (stereo unspecified), the IC50 in data set [8] is 0.023 µg/mL (≈ 0.0391 µM).

`O=c1c2ccccc2n2cnnc2n1-c1ccc(Br)cc1`: in data set [9], the 50% effective dose (ED50) was 94.6 mg/kg. Moreover, the selectivity ratio in data set [10] was greater than 26.

As to `CCN(CC)c1ccc2cc(C(=O)NNC(=O)Cn3nc(Cc4cccc(Br)c4)n(N)c3=O)c(=O)oc2c1`, the IC50 is 0.16 µg/mL (≈ 0.274 µM) in [11]; 3.1 µg/mL (≈ 5.3 µM) in data set [12]; 3.1 µg/mL (≈ 5.3 µM) in [14]; 3.1 µg/mL (≈ 5.3 µM) in data set [15]; 3.1 µg/mL (≈ 5.3 µM) in [16]. The “Ratio IC50” value in data set [13] amounted to 2.7.

With `Nn1c(Cc2ccccc2Br)nn(CC(=O)NNC(=O)c2cc3cc(Cl)cc(Cl)c3oc2=O)c1=O`, the IC50 in [12], in data set [14], in [15] and in data set [16] was 3.1 µg/mL (≈ 5.32 µM) in each case. The “Ratio IC50” value in [13] came to 5.2.

On to `Fc1cc(F)cc(-c2nn3c(CN4c5ccccc5Sc5ccccc54)nnc3s2)c1`, for which the Activity in data set [17] is on record as 82.24%.

In the case of `O=c1c2c3c(sc2n2c(CN4CCN(c5ccc(Cl)cc5)CC4)nnc2n1Cc1ccccc1)CCCC3`, the IC50 in data set [18] was 6.56 µM.

Regarding `CSc1nc(NC(=S)NCc2ccccc2)n(-c2ccc(C(=O)O)cc2)n1`, the IC50 in data set [19] stood at 15.6 µM.

Consider `CCc1nnc2c(Nc3ccc(C(=O)/C=C/c4cc(OC)c(OC)c(OC)c4)cc3)nc3ccccc3n12`, for which the IC50 in data set [20] is 8.58 µM.

Broadly, the inhibition is the share of the control response that was lost under treatment. `O=c1nc2c3c(ncn2[nH]1)Oc1c(c(=O)oc2ccccc12)C3c1ccc(F)cc1` (stereo unspecified) had an IC50 in data set [21] of 7.9 µg/mL (≈ 19.6 µM). Also, the inhibition in data set [22] was determined as 94%.

For `O=C(CSc1nnc2n(Cc3ccccc3)c(=O)c3c4c(sc3n12)CCCC4)N1CCN(c2ccccc2)CC1`, the IC50 in data set [23] was 5.48 µM.

Consider `O=c1c2ccccc2n2cnnc2n1-c1ccc(Cl)cc1`, for which the ED50 in [9] was found to be 88 mg/kg. Further, the selectivity ratio in [10] is greater than 25.5.

`O=C(CCSc1nnc2n(Cc3ccccc3)c(=O)c3c4c(sc3n12)CCCC4)N1CCN(c2ccccc2)CC1`: the IC50 in data set [18] turned out to be 6.12 µM.

In the case of `Cc1cc2nc(Cc3nncn3-c3ccccn3)c(=O)[nH]c2cc1C`, the “Ratio IC50” value in data set [24] is greater than 3000. This compound displayed an IC50 in [25] of less than 0.05 µM.

A word on the TD50: it is the 50% point of the dose-response relation for the toxic effect studied. Regarding `Fc1ccc(-n2c(-c3cccc(Cl)c3)n[nH]c2=S)cc1`, the TD50 in [26] came out at 137 mg/kg. Also, the selectivity ratio in [3] came to 3.9.

In the case of `Fc1cc(Cl)cc(-c2nn3c(CN4c5ccccc5Sc5ccccc54)nnc3s2)c1`, the Activity in data set [17] is 83.06%.
